What was measured:
glucose-6-phosphatase = conditions: qualitative, literature; cited from earlier work
[1] = molecular target: T1, glucose-6-phosphatase system (Rattus norvegicus, UniProt F7EWB7); assay: inhibition of the glucose-6-phosphatase system, enzyme assay in liver microsomes (phosphate liberated from glucose 6-phosphate); type: biochemical, male Wistar rats
T1 construct: To prepare the microsome fraction containing the glucose-6-phosphatase, fresh liver organs from male Wistar rats were used; from tissue; host or cells: liver microsome fraction of male Wistar rats
T1 sequence (F7EWB7 1-429): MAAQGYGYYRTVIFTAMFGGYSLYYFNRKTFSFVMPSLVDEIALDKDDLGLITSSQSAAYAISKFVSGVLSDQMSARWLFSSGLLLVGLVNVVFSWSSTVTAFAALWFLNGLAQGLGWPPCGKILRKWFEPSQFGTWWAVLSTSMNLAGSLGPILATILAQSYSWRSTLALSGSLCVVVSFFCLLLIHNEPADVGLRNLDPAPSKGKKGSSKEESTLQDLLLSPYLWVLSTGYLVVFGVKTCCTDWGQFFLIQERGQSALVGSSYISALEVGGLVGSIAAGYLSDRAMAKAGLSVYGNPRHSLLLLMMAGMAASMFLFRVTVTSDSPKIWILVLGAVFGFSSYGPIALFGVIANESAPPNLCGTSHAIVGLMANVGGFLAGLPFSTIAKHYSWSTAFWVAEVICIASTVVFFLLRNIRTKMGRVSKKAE
Procedure: The effect of the compounds according to the invention on the glucose-6-phosphatase system was investigated in an enzyme assay in liver microsomes.
To prepare the microsome fraction containing the glucose-6-phosphatase, fresh liver organs from male Wistar rats were used and were processed as described in the literature [Canfield, W. K. and Arion, W. J., J. Biol. Chem. 263, 7458-7460, (1988)]. This microsome fraction can be stored at -70° C. for at least 2 months without significant loss of activity.
The glucose-6-phosphatase activity was detected as indicated in the literature (Arion, W. J. in Methods Enzymol. 174, Academic Press 1989, pages 58-67) by determination of the phosphate liberated from glucose 6-phosphate. 0.1 ml of assay mixture contained glucose 6-phosphate (1 mmol/l), the test substance, 0.1 mg of microsome fraction and 100 mmol/l HEPES buffer (4-(2-hydroxyethyl)piperazine-1-ethanesulfonic acid), pH 7.0. The reaction was started by adding the enzyme. After 20 minutes at room temperature, the reaction was stopped by adding 0.2 ml of phosphate reagent. The sample was incubated at 37° C. for 30 min, and the absorption (A) of the blue color was subsequently measured at 570 nm. The inhibitory activity of the test substance emerged from comparison with a control reaction which contained no test substance according to the formula [formula] […]

IC50 ([1]; rat liver microsome fraction, glucose 6-phosphate 1 mmol/l, pH 7.0, 20 minutes at room temperature, read-out: IC50 (concentration for 50% inhibition of enzyme activity)) [µM]	Structure (SMILES)	inhibition of glucose-6-phosphatase (in words) (glucose-6-phosphatase)	inhibition of the glucose-6-phosphatase system (in words) ([1]; qualitative statement)
	S=C=Nc1ccccc1C=Cc1ccccc1N=C=S [2,2'-diisothiocyanatostilbene]	non-specific inhibitors of glucose-6-phosphatase	
4	CC(C)(COC(=O)/C=C(/c1ccccc1)n1cnc2ccccc21)C(OCCCc1ccc(Cl)cc1)C(=O)O (racemic) [Example 1, (±)-4-(3Z-(1-Benzimidazolyl)-3-phenylpropenoyloxy)-2-(4-chlorophenylpropyloxy)-3,3-dimethylbutanoic acid]		inhibitors of the glucose-6-phosphatase system
	O=C(O)c1cc(SSc2ccc([N+](=O)[O-])c(C(=O)O)c2)ccc1[N+](=O)[O-] [5,5'-dithiobis-2-nitrobenzoic acid]	non-specific inhibitors of glucose-6-phosphatase	
	O=C(CCc1ccc(O)cc1)c1c(O)cc(O)cc1O[C@@H]1O[C@H](CO)[C@@H](O)[C@H](O)[C@H]1O [phlorrhizin]	non-specific inhibitors of glucose-6-phosphatase	
	CC(=O)Oc1ccccc1C=Cc1ccccc1N=C=S [2-iso-thiocyanato-2'-acetoxystilbene]	non-specific inhibitors of glucose-6-phosphatase	
